According to PubChem BioAssay (NCI):
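Exposure lasted 48 hours, with cells grown in 96-well plates and compounds tested at five concentrations. GI50: concentration for 50% inhibition of growth. TGI is the concentration that stops growth completely.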

Experiments:
Experiment in all cases: NCI tumour cell line growth inhibition, 48 h
[1] = system: PC-3 prostate
[2] = system: KM12 colon
[3] = system: HOP-92 NSCLC
[4] = system: HS 578T breast
[5] = system: SF-268 CNS
[6] = system: RPMI-8226 leukemia
[7] = system: OVCAR-3 ovarian
[8] = system: SK-MEL-28 melanoma
[9] = system: M14 melanoma
[10] = system: MDA-MB-435
[11] = system: DU-145 prostate
[12] = system: U251 CNS
[13] = system: A549 NSCLC
[14] = system: NCI/ADR-RES ovarian
[15] = system: BT-549 breast
[16] = system: LOX IMVI melanoma
[17] = system: HT29 colon
[18] = system: SN12C renal
[19] = system: MCF7 breast
[20] = system: SK-MEL-5 melanoma
[21] = system: OVCAR-5 ovarian
[22] = system: HL-60(TB) leukemia
[23] = system: MALME-3M melanoma
[24] = system: IGROV1 ovarian
[25] = system: SNB-19 CNS
[26] = system: K-562 leukemia
[27] = system: SF-539 CNS
[28] = system: UACC-257 melanoma
[29] = system: NCI-H460 lung
[30] = system: EKVX NSCLC
[31] = system: RXF 393 renal
[32] = system: NCI-H522 lung
[33] = system: CAKI-1 renal
[34] = system: 786-0 renal
[35] = system: COLO 205 colon
[36] = system: UACC-62 melanoma
[37] = system: UO-31 renal
[38] = system: TK-10 renal
[39] = system: SK-MEL-2 melanoma
[40] = system: SW-620 colon
[41] = system: T-47D breast
[42] = system: CCRF-CEM leukemia
[43] = system: SK-OV-3 ovarian
[44] = system: OVCAR-8 ovarian
[45] = system: HCT-15 colon
[46] = system: MDA-MB-231 breast
[47] = system: HCT-116 colon
[48] = system: A498 renal
[49] = system: MOLT-4 leukemia
[50] = system: SNB-75 CNS
[51] = system: SF-295 CNS
[52] = system: HOP-62 NSCLC
[53] = system: HCC-2998 colon
[54] = system: ACHN renal
[55] = system: NCI-H23 lung
[56] = system: OVCAR-4 ovarian

For `CCSCC1CC(O)(c2ccccc2)CC(c2ccc(F)cc2)O1` (configuration not stated), the GI50 [1] was 1820 nM, the TGI [1] was 4890 nM and the GI50 [2] was 1880 nM. For the same molecule, the TGI [2] was 3670 nM, the GI50 [3] was 1250 nM and the TGI [3] was 2720 nM. It also gave a GI50 [4] of 1890 nM, a TGI [4] of 4360 nM and a GI50 [5] of 2410 nM. For the same molecule, the TGI [5] was 6110 nM, the GI50 [6] was 1950 nM and the TGI [6] was 6460 nM. It also gave a GI50 [7] of 1830 nM, a TGI [7] of 3400 nM and a GI50 [8] of 2150 nM. The TGI [8] was 4440 nM, the GI50 [9] was 1760 nM and the TGI [9] was 3320 nM. It also gave a GI50 [10] of 2040 nM, a TGI [10] of 4360 nM and a GI50 [11] of 2660 nM. For the same molecule, the TGI [11] was 7170 nM, the GI50 [12] was 1630 nM and the TGI [12] was 3300 nM. For the same molecule, the GI50 [13] was 2740 nM, the TGI [13] was 11000 nM and the GI50 [14] was 2440 nM. It also gave a TGI [14] of 6660 nM, a GI50 [15] of 1600 nM and a TGI [15] of 3450 nM. For the same molecule, the GI50 [16] was 1600 nM, the TGI [16] was 2940 nM and the GI50 [17] was 1730 nM. For the same molecule, the TGI [17] was 3460 nM, the GI50 [18] was 1740 nM and the TGI [18] was 3170 nM. For the same molecule, the GI50 [19] was 2790 nM, the TGI [19] was 8980 nM and the GI50 [20] was 1740 nM. For the same molecule, the TGI [20] was 3160 nM, the GI50 [21] was 2170 nM and the TGI [21] was 5090 nM. The GI50 [22] was 2190 nM, the TGI [22] was 4560 nM and the GI50 [23] was 1560 nM. It also gave a TGI [23] of 3510 nM, a GI50 [24] of 2120 nM and a TGI [24] of 5750 nM. It also gave a GI50 [25] of 2630 nM, a TGI [25] of 9360 nM and a GI50 [26] of 1830 nM. The TGI [26] was 3930 nM, the GI50 [27] was 1940 nM and the TGI [27] was 3840 nM. It also gave a GI50 [28] of 2270 nM, a TGI [28] of 5260 nM and a GI50 [29] of 2240 nM. For the same molecule, the TGI [29] was 4630 nM, the GI50 [30] was 2130 nM and the TGI [30] was 6040 nM. The GI50 [31] was 1680 nM, the TGI [31] was 3470 nM and the GI50 [32] was 1940 nM. For the same molecule, the TGI [32] was 5880 nM, the GI50 [33] was 2420 nM and the TGI [33] was 8160 nM. For the same molecule, the GI50 [34] was 2020 nM, the TGI [34] was 4530 nM and the GI50 [35] was 1530 nM. The TGI [35] was 2870 nM, the GI50 [36] was 1420 nM and the TGI [36] was 3200 nM. For the same molecule, the GI50 [37] was 1400 nM, the TGI [37] was 5100 nM and the GI50 [38] was 2160 nM. For the same molecule, the TGI [38] was 6130 nM, the GI50 [39] was 1790 nM and the TGI [39] was 3530 nM. It also gave a GI50 [40] of 1980 nM, a TGI [40] of 4420 nM and a GI50 [41] of 2230 nM. For the same molecule, the TGI [41] was 8240 nM, the GI50 [42] was 1860 nM and the TGI [42] was 5910 nM. The GI50 [43] was 2620 nM, the TGI [43] was 7390 nM and the GI50 [44] was 2950 nM. It also gave a TGI [44] of 8790 nM, a GI50 [45] of 2110 nM and a TGI [45] of 5490 nM. For the same molecule, the GI50 [46] was 1980 nM, the TGI [46] was 4390 nM and the GI50 [47] was 1660 nM. The TGI [47] was 3020 nM, the GI50 [48] was 1440 nM and the TGI [48] was 2770 nM. It also gave a GI50 [49] of 1660 nM, a TGI [49] of 4140 nM and a GI50 [50] of 1880 nM. It also gave a TGI [50] of 5740 nM, a GI50 [51] of 1900 nM and a TGI [51] of 3920 nM. The GI50 [52] was 1750 nM, the TGI [52] was 3290 nM and the GI50 [53] was 2560 nM. For the same molecule, the TGI [53] was 7110 nM, the GI50 [54] was 2370 nM and the TGI [54] was 6560 nM. For the same molecule, the GI50 [55] was 2100 nM, the TGI [55] was 5280 nM and the GI50 [56] was 2690 nM. For the same molecule, the TGI [56] was 11500 nM.
